Where two headings read alike, the source gives them in different places. Values belong to the compound of their own block, whether it stands above or below them.
Columns and labels:
[1] = pK assessment from absorbance/emission versus pH in phosphate buffers; assay type: physicochemical; settings: for pKa: phosphate buffers at different pH, inflection point of absorbance vs pH, phosphate buffers, read-out: pKa (by abs)
Description: From the analysis of the variation of the absorbance and emission with respect to the variation of pH, it was possible to calculate the pKa of the dyes of the invention as the inflection point of the interpolated curve.
All the pH buffers used for the experiment were phosphate based buffers and each pH point has been accurately checked with pH-meter. First the cyanine powder was dissolved in water at ca. 1 mg/mL concentration and then 10 μL of this mother solution were added to 1 ml of phosphate buffers at different pH, previously prepared mixing ortophosphoric acid and sodium hydroxide in the right amount to reach the desired pH. The diluted cyanine buffered solutions were then sampled and transferred into a 96 wells plate (clear for the absorbance measurements and dark for the emission measurements) for the analyses. By plotting for each solution the value of the absorbance at the maximum of the active form, for instance 780 nm for Compound 5, vs. the pH of the solution, a polynomial cubic curve was obtained, whose flex corresponds to the pKa value of the cyanine.

[2] = Residual fluorescence at different pH relative to pH 3; assay type: physicochemical; settings: unit assumed; for Em. at pH 5/Em at pH 3: fluorescence at pH 5 relative to maximum at pH 3; for Em. at pH 6/Em at pH 3: fluorescence at pH 6 relative to maximum at pH 3; for Em. at pH 7.5/Em at pH 3: fluorescence at pH 7.5 relative to maximum at pH 3
Description: The ratio of the fluorescence at different pH (5, 6 and 7.5) with respect to the maximum fluorescence collected at pH 3 (highly acidic) was calculated for several representative compounds of the invention and the results are reported in the following Table V. The results were also compared to the values calculated for the non-alkylated Reference Compound A.

[3] = pKa of prior-art pH sensitive cyanine dyes (literature); assay type: physicochemical; settings: worked out from literature pKa
[4] = literature value; cited from earlier work
[5] = Optical characterization (absorbance, excitation and emission spectra, microplate reader); assay type: physicochemical; settings: phosphate buffer; for Abs. Max. / Em. Max.: maximum of the active form
Description: All commercially available reagents used in the synthesis were obtained from Sigma Aldrich and TCI and they were used without further purification. c(RGDfK) was purchased from Apex Bio or Bachem. All the reactions were followed by HPLC (Agilent mod. 1100/1200) and HPLC-MS (Agilent mod. 1260, Quadrupole LC/MSD Mod. 6120) equipped with an absorption detector set at different wavelengths (Column: YMC-Triart Phenyl, 250×4.6 mm/S-5 μm/12 nm). Purifications were performed by flash chromatography on an automated purification system (CombiFlash® Rf+), using pre-packed silica C18 cartridges (Biotage® or Phenomenex) or by preparative HPLC on preparative YMC-Triart Phenyl column. Absorbance, excitation and emission values were assessed in a well plate reader to speed-up the measurements (SPARK).
Optical characterization was performed for each compound with Spark® multimode microplate reader, registering with specific 96-wells plate the absorbance, excitation and emission spectra of the fluorophore buffered in phosphate buffer at several pH, ranging from 3 to 8.
In particular, the absorbance, excitation and emission maxima of representative compounds of formula (I) and conjugates of formula (II) are shown in Table III.

SMILES: CC1(C)C(/C=C/C2=C(Cl)C(=C/C=C3/Nc4ccc(C(=O)NCC(O)C(O)C(O)C(O)CO)cc4C3(C)C)/CCC2)=[N+](CCCCCC(=O)NCCCCC2NC(=O)[C@@H](Cc3ccccc3)NC(=O)[C@H](CC(=O)O)NC(=O)CNC(=O)[C@H](CCCNC(=N)N)NC2=O)c2ccc(C(=O)NCC(O)C(O)C(O)C(O)CO)cc21 (some centres unmarked) [Compound 12]
- Exc. Max. [5]: 790 nm
- Abs. Max. [5]: 793 nm
- Em. Max. [5]: 814 nm

SMILES: CC1(C)C(/C=C/C2=C(Cl)C(=C/C=C3/Nc4ccc(S(=O)(=O)O)cc4C3(C)C)/CCC2)=[N+](CCCCCC(=O)NCCCCC2NC(=O)[C@@H](Cc3ccccc3)NC(=O)[C@H](CC(=O)O)NC(=O)CNC(=O)[C@H](CCCNC(=N)N)NC2=O)c2ccc(C(=O)NCC(O)C(O)C(O)C(O)CO)cc21 (some centres unmarked) [Compound 11]
- pKa [1]: 6.3

SMILES: CC[N+]1=C(/C=C/C=C/C=C2/Nc3ccc(CC(=O)O)cc3C2(C)C)C(C)(C)c2cc(S(=O)(=O)[O-])ccc21 [pentamethine cyanine dye]
- pKa [4]: 7.5

SMILES: CC(CC[N+]1=C(/C=C/C2=C(Cl)C(=C/C=C3/Nc4ccc(S(=O)(=O)O)cc4C3(C)C)/CCC2)C(C)(C)c2cc(C(=O)O)ccc21)S(=O)(=O)[O-] (centres unmarked) [Compound 1]
- Exc. Max. [5]: 783 nm
- Abs. Max. [5]: 784 nm
- Em. Max. [5]: 804 nm
- pKa [1]: 6
- Em. at pH 5/Em at pH 3 [2]: 104%
- Em. at pH 6/Em at pH 3 [2]: 55%
- Em. at pH 7.5/Em at pH 3 [2]: 9%

SMILES: CC1(C)C(/C=C/C=C/C=C2/Nc3ccc(S(=O)(=O)O)cc3C2(C)CCCCCC(=O)O)=[N+](CCCCS(=O)(=O)O)c2ccc(S(=O)(=O)O)cc21 (centres unmarked) [CypHer5E]
- pKa [4]: ~7.3

SMILES: CC1(C)C(/C=C/C2=C(Cl)C(=C/C=C3/Nc4ccc(S(=O)(=O)O)cc4C3(C)C)/CCC2)=[N+](CCCCCC(=O)NCCCCC2NC(=O)[C@@H](Cc3ccccc3)NC(=O)[C@H](CC(=O)O)NC(=O)CNC(=O)[C@H](CCCNC(=N)N)NC2=O)c2ccc(S(=O)(=O)[O-])cc21 (some centres unmarked) [Compound 10]
- pKa [1]: 5.8

SMILES: CC1(C)C(/C=C/C2=C(c3ccc(C(=O)O)cc3)C(=C/C=C3/Nc4ccc(S(=O)(=O)O)cc4C3(C)C)/CCC2)=Nc2ccc(S(=O)(=O)O)cc21 [B]
- pH at which 95% protonation is achieved [3]: 4.2
- pKa [4]: 5.2

Further lines, with some results ahead:

- pKa [1]: 4.6
- Em. at pH 5/Em at pH 3 [2]: 40%
- Em. at pH 6/Em at pH 3 [2]: 10%
- Em. at pH 7.5/Em at pH 3 [2]: 1%
- pH at which 95% protonation is achieved [3]: 3.7
SMILES: CC1(C)C(/C=C/C2=C(Cl)C(=C/C=C3/Nc4ccc(S(=O)(=O)O)cc4C3(C)C)/CCC2)=Nc2ccc(S(=O)(=O)O)cc21 [Reference Compound A, reference compound]
- pKa [4]: 4.7

- pKa [1]: 6.7
SMILES: CC1(C)C(/C=C/C(Cl)=C/C=C2/N(CCCCCC(=O)O)c3ccc4c(S(=O)(=O)O)cc(S(=O)(=O)O)cc4c3C2(C)C)=Nc2ccc3c(S(=O)(=O)O)cc(S(=O)(=O)O)cc3c21 [Compound 9]

- pKa [1]: 6.1
SMILES: CC1(C)C(/C=C/C2=C(Cl)C(=C/C=C3/N(CCCCCC(=O)O)c4ccc(C(=O)NCC(O)C(O)C(O)C(O)CO)cc4C3(C)C)/CCC2)=Nc2ccc(C(=O)NCC(O)C(O)C(O)C(O)CO)cc21 (centres unmarked) [Compound 7]

- pKa [1]: 6
SMILES: CC1(C)C(/C=C/C2=C(Cl)C(=C/C=C3/Nc4ccc(S(=O)(=O)[O-])cc4C3(C)C)/CCC2)=[N+](CCCCCC(=O)O)c2ccc(C(=O)NCC(O)C(O)C(O)C(O)CO)cc21 (centres unmarked) [Compound 6]

- pKa (from emission vs pH) ([1]; emission at 804 nm vs pH, second source of data): same value of pKa
- pKa [1]: 5.9
SMILES: CC1(C)C(/C=C/C2=C(Cl)C(=C/C=C3/Nc4ccc(S(=O)(=O)O)cc4C3(C)C)/CCC2)=[N+](CCCCCC(=O)O)c2ccc(S(=O)(=O)[O-])cc21 [Compound 5]

- Exc. Max. [5]: 780 nm
- Abs. Max. [5]: 782 nm
- Em. Max. [5]: 807 nm
SMILES: CC(CC[N+]1=C(/C=C/C2=C(Cl)C(=C/C=C3/Nc4ccc(S(=O)(=O)O)cc4C3(C)C)/CCC2)C(C)(C)c2cc(C(=O)NCC(O)C(O)C(O)C(O)CO)ccc21)S(=O)(=O)[O-] (centres unmarked) [Compound 3]

- Exc. Max. [5]: 740 nm
- Abs. Max. [5]: 742 nm
- Em. Max. [5]: 777 nm
- pKa [1]: 6
- Em. at pH 5/Em at pH 3 [2]: 96%
- Em. at pH 6/Em at pH 3 [2]: 66%
- Em. at pH 7.5/Em at pH 3 [2]: 10%
SMILES: CC1(C)C(/C=C/C=C/C=C/C=C2/Nc3ccc(S(=O)(=O)O)cc3C2(C)C)=[N+](CCCCCC(=O)O)c2ccc(S(=O)(=O)O)cc21 [Compound 8]

- pKa [1]: 6.4
SMILES: CC1(C)C(/C=C/C2=C(c3ccc(C(=O)NCCS(=O)(=O)O)cc3)C(=C/C=C3/Nc4ccc(S(=O)(=O)O)cc4C3(C)C)/CCC2)=[N+](CCCCCC(=O)O)c2ccc(S(=O)(=O)[O-])cc21 [Compound 4]
